# How the values were obtained:
# [1] = test system: toluene monooxygenase (TMO); assay: TCE induced TMO activity with different growth substrates (14C-toluene assay); type: cell-based, Pseudomonas mendocina KR-1; settings: 40 μM TCE; for induced TMO activity increase (FIG. 4): growth substrate run, 6 hour period; for factor of TMO activity increase after addition of the substrate (FIG. 4): 3 g/L glutamate, 2 g/L glucose, or 20 mM lactate added after 2.75 hours
# Description: (§1) Radioactivity in the bottles was enumerated by placing the bottles in a liquid scintillation counter. Results were recorded as disintegrations per minute (DPM). […] Non-volatile products were not evaporated from the silica gel during the drying phase, and were enumerated by scintillation counting. Thus, the greater the DPMs, the greater the TMO activity.
# (§2) The effect of three growth substrates on TCE induced TMO activity was also established through a series of four runs. Cells were grown overnight as previously described for non-inducing growth: 30° C., 100 RPM, 50 mL cells in 125 mL flask in BSM with either 3 g/L sodium glutamate, 20 mM lactate, or 2 g/L glucose. The cultures were then washed and suspended to an O.D.550 =1.0 in BSM plus 0.3 g/L glutamate, 2.0 mM lactate, and 0.2 g/L glucose, respectively. TCE was then added to a final concentration of 40 μM, vials were sealed, and shaken at 30° C. […] At timed intervals, 10 μL of the air above the reaction mixture was removed from the vials by using a gas-tight syringe, and injected onto a gas chromatograph (Varian 3400; Star Data System) equipped with a 30M VOCOL column (Supelco Inc.: c0.53 mm ID, […] film, helium carrier at 7 mL/min, 100° C. isothermal, injector at 225° C.) and an electron capture detector (GC-ECD; 300° C.) to quantify the TCE remaining in the vial. Relative TCE concentration was enumerated as area counts, greater area counts representing greater amounts of TCE remaining in the vials. Five cell suspensions as described above were supplemented with 1 μM, 10 μM, 20 μM, 40 μM and 80 μM of TCE. A control run not shown in FIG. 3, and performed in the same manner as the other five runs, contained only DMF. Cell suspensions were incubated at 30° C. with shaking, and TMO activity, as described above with respect to Example 1, was determined at timed intervals.
# [2] = test system: toluene monooxygenase (TMO); type: cell-based, Pseudomonas mendocina KR-1; settings: for TMO Activity (DPM): cells grown 48 hr on growth substrate (Table 1); for % Activity: relative to toluene-grown cells (Table 1)
# Description: as §1
# (§3) To determine the ability of alkanes to assist in the induction of TMO activity in P. mendocina KR-1 and to subsequently degrade TCE, the organism was grown in basal salts medium with hexane, octane and pentane as sole carbon and energy sources.
# Cells were grown for 48 hr, washed with BSM, then suspended to an OD550 of 1.0 in BSM. Cells were incubated for 1 hr to allow removal of most residual alkane. They were then subjected to TMO and TCE assays.
# [3] = test system: toluene monooxygenase (TMO); type: cell-based, Pseudomonas mendocina KR-1; settings: for induction of TMO, in words: substrate added to glutamate-grown cells
# Description: as §1
# A TMO assay was performed on the cells. Then 5 ml of the culture was added to each of four 50 mL serum vials. […] The vials were incubated at 30° C. and sampled, by using a glass syringe, at 1.5 hr and 2.5 hr after substrate addition.
# [4] = test system: toluene monooxygenase (TMO); assay: TMO activity induced by TCE (14C-toluene assay); type: cell-based, Pseudomonas mendocina KR-1
# Description: Cells were first grown overnight under non-inducing conditions. Specifically, cells were grown by suspending a small amount of cells from agar plate, or broth media, in a 125 mL flask containing 50 mL of basal salts medium (BSM) containing 3 g/L sodium glutamate with or without 0.1 g/L casamino acids (Difco). Cells were placed on a rotary shaker and shaken at 100 rpm and 30° C. for 16-24 hr. The cells were then centrifuged and washed with BSM. They were subsequently suspended in BSM and glutamate (3 g/L) to an optical density at 550 nm (OD550) of 1.0. Ten mL of cell suspension was added to a 50 mL serum vial, and 10 μL TCE (40 mM) dissolved in dimethylformamide (DMF) was added to a final concentration of 40 μM.
# Comparison non-induced samples were prepared by adding only dimethylformamide (10 μL) to replicate 10 mL cell suspensions. The comparison samples contained no TCE. All sample vials were sealed with teflon-coated crimp seals and the cell suspensions were shaken at 25° C.
# as §1
# Another set of experiments containing five runs was performed to determine the preferred concentration of TCE used to induce the TMO genes in P. mendocina KR-1. TCE degradation was measured by suspending cells in BSM to an OD550 of 1.0. 10 mL of cells were added to 50 mL serum vials and 10 μL of TCE in dimethylformamide was added (final TCE concentration: 1-80 μM). Vials were sealed with teflon-lined crimp seals and shaken at 30° C. At timed intervals, 250 μl of sample was removed from each sample by using a syringe. The sample was mixed with 250 μl BSM to generate a final volume of 0.5 mL and OD550 of 0.5. ^14 C-Toluene assays were then performed on the samples as described previously.
# [5] = test system: Pseudomonas mendocina KR-1; assay: TCE degradation (TCE bottle assay, gas chromatography); type: cell-based
# Description: as §2
# as §3, with “sources. TMO activity was determined by using the ^14 C-toluene assay and TCE degradation was measured by using a TCE bottle assay, both as described previously.” for “sources.”
# Finally, alkane grown cells were analyzed for their ability to degrade TCE by using the TCE bottle assay and cells suspended in BSM to OD550 =2.0. […] Loss of TCE in the control (glucose) sample is thought to be due to induction of TMO by TCE.
# [6] = test system: Pseudomonas cepacia; settings: cited from earlier work
# [7] = test system: Pseudomonas putida; settings: only upon induction by toluene or phenol; cited from earlier work
compound,measurement,setting,value
"N[C@@H](CCC(=O)[O-])C(=O)[O-].[Na+].[Na+] [Gultamate, sodium glutamate, reference compound]",induced TMO activity increase (FIG. 4),[1],"up to 3,500 DPM"
same,factor of TMO activity increase after addition of the substrate (FIG. 4),[1],at least 5
same,TMO Activity (DPM),[2],123 DPM
same,% Activity,[2],0.7%
CCCCCC [Hexanes],TMO Activity (DPM),[2],4889 DPM
same,% Activity,[2],29%
CCCCCCCC [Octane],TMO Activity (DPM),[2],3915 DPM
same,% Activity,[2],23%
CCCCC [Pentane],TMO Activity (DPM),[2],2079 DPM
same,% Activity,[2],12%
same,"TMO Activity (DPM), T = 1.5 hr.","[3]; 1.5 hr after substrate addition, 30° C. (Table 2)",2480 DPM
same,"TMO Activity (DPM), T = 2.5 hr.","[3]; 2.5 hr after substrate addition, 30° C. (Table 2)",1293 DPM
same,"TMO Activity (DPM), T = 0","[3]; T = 0, before substrate addition (Table 2)",126 DPM
same,"TMO Activity (DPM), T = 1.5 hr., killed cells","[3]; killed (100 μl 1M HCl) + pentane, 1.5 hr (Table 2)",128 DPM
same,"TMO Activity (DPM), T = 2.5 hr., killed cells","[3]; killed (100 μl 1M HCl) + pentane, 2.5 hr (Table 2)",121 DPM
same,"TMO Activity (DPM), T = 0, killed cells","[3]; killed (100 μl 1M HCl) + pentane, T = 0 (Table 2)",126 DPM
same,"induction of TMO, in words",[3],induction of TMO by pentane
"ClC=C(Cl)Cl [TCE, trichloroethylene]",TMO activity (FIG. 3),"[4]; 1 μM TCE, 4 hour test period",very little TMO activity was measured
same,TMO activity (FIG. 3),"[4]; 10 μM or more of TCE, after the first half hour",increased dramatically after the first half hour
same,induced TMO activity over 30 minutes (FIG. 1),"[4]; 40 μM TCE, 25° C., 30 minute period",increased dramatically over the 30 minute time period
same,TMO activity (FIG. 2),"[4]; 40 μM TCE, first 75 minutes","over 3,000 DPM"
same,further increase of TMO activity (FIG. 2),"[4]; 40 μM TCE, remaining 4 1/2 to 5 hours of six hour experiment",almost two fold
same,rate of increase of TMO activity (FIG. 1),"[4]; 40 μM TCE, ten minute time interval",substantially two fold rate
same,induction of TMO activity (FIG. 3),[4]; 10 and 20 μM TCE,best results with respect to induction of TMO activity
same,induction of TMO activity (FIG. 3),[4]; concentrations higher than 10 and 20 μM TCE,quite effective
same,TMO induction by TCE in glutamate- and glucose-grown cells,[1],rapid induction
same,percentage of TCE remaining (FIG. 6),"[5]; 6 hours, glucose (2 g/L) added after about 3 hours, 40 µM",about 10%
same,loss of TCE in the control (glucose) sample (FIG. 7),"[5]; OD550 = 2.0, glucose-grown control",Loss of TCE
same,TCE degradation (FIG. 6),[5]; absent any additional inducing substrates,TCE degradation occurs simply by contacting Pseudomonas mendocina cells with TCE
same,TCE concentrations in response to TMO induction (FIG. 5),"[5]; sealed vials, 6 hours",decreased in response to TMO induction
same,TCE degradation by Pseudomonas cepacia G4,[6]; grown without an inducer,unable to degrade TCE
same,TCE degradation by Pseudomonas cepacia 5223-PR1,[6]; recombinant strain,did display the ability to degrade TCE
same,TCE degradation by Pseudomonas putida PpF1 and B5,[7],some ability to degrade TCE
"Cc1ccccc1 [Toluene, reference compound]",% Activity,[2],100%
same,"induction of TMO, in words",[3],only limited activity was observed
CC(O)C(=O)O (stereo not shown) [lactate],TMO activity up to 2.75 hours (FIG. 4),[1]; before addition of further substrate,little or no TMO activity
same,factor of TMO activity increase after addition of the substrate (FIG. 4),[1],at least 5
glucose,induced TMO activity increase (FIG. 4),[1],"under 5,000 DPM"
same,factor of TMO activity increase after addition of the substrate (FIG. 4),[1],at least 5
same,effect of growth substrate on TCE degradation (FIG. 5),"[5]; 40 μM TCE, 6 hours",greatest effect on TCE degradation
